Experimental findings from ChEMBL document CHEMBL5620386, “Synthesis, biological screening and in silico studies of new N-phenyl-4-(1,3-diaryl-1H-pyrazol-4-yl)thiazol-2-amine derivatives as potential antifungal and antitubercular agents” (Eur J Med Chem, 2023) are described below.

The MIC is the smallest concentration in the dilution series that meets the test's criterion for growth inhibition.

For series [1], the system named is Proteus mirabilis. Description: Antimicrobial activity against Proteus mirabilis NCIM 2388 assessed as zone of inhibition by well diffusion method. The class given is functional. Background: A growth-free zone around the sample is the usual read-out of agar diffusion tests.
Series [2] concerns Bacillus subtilis. Description: Antimicrobial activity against Bacillus subtilis NCIM 2063 assessed as zone of inhibition by well diffusion method. The class given is functional.
The test system of series [3] is Proteus mirabilis. Description: Antimicrobial activity against Proteus mirabilis NCIM 2388 assessed as absence of growth by well diffusion method. The class given is functional.
In series [4] the test system is Staphylococcus aureus. Description: Antimicrobial activity against Staphylococcus aureus NCIM 2178 assessed as absence of growth by well diffusion method. The class given is functional.
Series [5] has as its system Bacillus subtilis. As to the kind of experiment: Antimicrobial activity against Bacillus subtilis NCIM 2063 assessed as absence of growth by well diffusion method. Type of series: functional.
Series [6] deals with Staphylococcus aureus. As to the kind of experiment: Antimicrobial activity against Staphylococcus aureus NCIM 2178 assessed as zone of inhibition by well diffusion method. The class given is functional.
Series [7] relates to Aspergillus niger. Description: Antifungal activity against Aspergillus niger ATCC 504 assessed as absence of growth by well diffusion method. Type of series: functional.
For the next series, the system named is Escherichia coli. Description: Antimicrobial activity against Escherichia coli NCIM 2574 assessed as zone of inhibition by well diffusion method. Type of series: functional.
The test system of series [8] is Aspergillus niger. As to the kind of experiment: Antifungal activity against Aspergillus niger ATCC 504 assessed as zone of inhibition by well diffusion method. The class given is functional.
Series [9] concerns Mycobacterium tuberculosis. Description: Antitubercular activity Mycobacterium tuberculosis H37Rv strain ATCC No- 27294 assessed as prevention of color change from blue to pink using Almar Blue measured after 24 hrs by MABA assay. Type of series: functional.
Another series has as its system Candida albicans. As to the kind of experiment: Antifungal activity against Candida albicans NCIM 3100 assessed as zone of inhibition by well diffusion method. Type of series: functional.
A short description of series [10]: Cytotoxicity against mouse 3T3-L1 cells assessed as cell viability at 12.5 ug/ml measured after 24 hrs by MTT assay relative to control. The class given is toxicity, cell-based. The settings on record: at 12.5 µg/mL, read-out: Activity. (In general: Tetrazolium assays rely on reduction of a dye to a coloured formazan, in cell work by metabolically active cells.)

Series [11] is described as follows: Cytotoxicity against mouse 3T3-L1 cells assessed as cell viability at 25 ug/ml measured after 24 hrs by MTT assay relative to control. The following applies: at 25 µg/mL, read-out: Activity. Type of series: toxicity, cell-based.

SMILES strings stand for the structures. In brackets after ≈: the same amount, converted by molar mass. Several values for one entry are separate records, joined by “and”; a condition that tells them apart may be missing. Identical values can stand only once. Activity calls are given as the source filed them.

For `Fc1ccc(-c2nn(-c3ccc(F)cc3)cc2-c2csc(Nc3ccc(Cl)cc3)n2)cc1`, the “inhibition zone (IZ)” value is 15 mm in the series on Proteus mirabilis [1]; 14 mm in the series with Bacillus subtilis [2]; 14 mm in the series on Staphylococcus aureus [6]; 12 mm with Escherichia coli; 19.6 mm in the series with Aspergillus niger [8]; 10 mm in the series on Candida albicans. The MIC in the series on Proteus mirabilis [3] was 125 µg/mL (≈ 269 µM); in the series on Staphylococcus aureus [4], 125 µg/mL (≈ 269 µM); with Bacillus subtilis [5], 125 µg/mL (≈ 269 µM); in the series on Aspergillus niger [7], 15.6 µg/mL and 33.7 µM; in [9], 25 µg/mL and 53.9 µM.

For the molecule `Cc1ccc(Nc2nc(-c3cn(-c4ccc(F)cc4)nc3-c3ccc(F)cc3)cs2)cc1`, the “inhibition zone (IZ)” value was 15 mm in the series with Proteus mirabilis [1]; 18 mm with Bacillus subtilis [2]; 13 mm in the series with Staphylococcus aureus [6]; 18.6 mm in the series on Aspergillus niger [8]; 10.2 mm in the series with Candida albicans. In addition, the MIC in the series with Proteus mirabilis [3] is 125 µg/mL (≈ 281 µM); in the series with Bacillus subtilis [5] it was 15.6 µg/mL and 35.2 µM; with Aspergillus niger [7], 15.6 µg/mL and 35.2 µM; in [9], 3.12 µg/mL and 7.03 µM. Further, the viability at 24 h, 12.5 ug/ml in series [10] was found to be 99.5%. Also, in the series on Escherichia coli, the “inhibition zone (IZ)” value was “inactive”. The viability at 24 h, 25 ug/ml in [11] amounted to 114%.

As to `COc1ccc(Nc2nc(-c3cn(-c4ccc(F)cc4)nc3-c3ccc(F)cc3)cs2)cc1`, the “inhibition zone (IZ)” value with Proteus mirabilis [1] stood at 14 mm; in the series with Bacillus subtilis [2] it was 12 mm; in the series on Staphylococcus aureus [6], 15 mm; in the series with Aspergillus niger [8], 19 mm; in the series on Candida albicans it was 11.6 mm. Also, the MIC in the series on Proteus mirabilis [3] was 125 µg/mL (≈ 271 µM); with Staphylococcus aureus [4], 125 µg/mL (≈ 271 µM); in the series on Bacillus subtilis [5], 7.82 µg/mL (≈ 17 µM); in the series on Aspergillus niger [7], 15.6 µg/mL and 34 µM; in [9], 3.12 µg/mL and 6.78 µM. The viability at 24 h, 12.5 ug/ml in series [10] was 113%. Further, the “inhibition zone (IZ)” value with Escherichia coli was “inactive”. In addition, the viability at 24 h, 25 ug/ml in [11] was determined as 102%.

Regarding `Cc1ccc(Nc2nc(-c3cn(-c4ccc(F)cc4)nc3-c3ccccc3)cs2)cc1`, the “inhibition zone (IZ)” value with Proteus mirabilis [1] is on record as 14.2 mm; in the series with Bacillus subtilis [2], 14.2 mm; in the series on Staphylococcus aureus [6], 17 mm; with Aspergillus niger [8], 18.6 mm; in the series on Candida albicans, 10.2 mm. Further, the MIC with Proteus mirabilis [3] is 125 µg/mL (≈ 293 µM); with Staphylococcus aureus [4] it was 62.5 µg/mL and 147 µM; in the series on Bacillus subtilis [5], 125 µg/mL (≈ 293 µM); with Aspergillus niger [7], 15.6 µg/mL and 36.7 µM; in series [9] it was 3.12 µg/mL and 7.34 µM. For the same molecule, the viability at 24 h, 12.5 ug/ml in [10] came out at 102%. Also, the “inhibition zone (IZ)” value in the series on Escherichia coli is “inactive”. The viability at 24 h, 25 ug/ml in series [11] was found to be 96.2%.

As for `Fc1ccc(-c2nn(-c3ccc(F)cc3)cc2-c2csc(Nc3ccccc3)n2)cc1`, the “inhibition zone (IZ)” value with Proteus mirabilis [1] came to 15.2 mm; with Bacillus subtilis [2], 14 mm; in the series with Staphylococcus aureus [6], 15 mm; in the series on Aspergillus niger [8] it was 19.25 mm; in the series with Candida albicans, 12.2 mm. For the same molecule, the MIC in the series on Proteus mirabilis [3] was 125 µg/mL (≈ 290 µM); with Staphylococcus aureus [4], 125 µg/mL (≈ 290 µM); with Bacillus subtilis [5] it was 125 µg/mL (≈ 290 µM); with Aspergillus niger [7] it was 15.6 µg/mL and 36.3 µM; in series [9], 25 µg/mL and 58.1 µM. Moreover, the “inhibition zone (IZ)” value in the series with Escherichia coli was “inactive”.

Regarding `COc1ccc(Nc2nc(-c3cn(-c4ccccc4)nc3-c3ccc(Cl)cc3)cs2)cc1`, the “inhibition zone (IZ)” value stood at 14 mm in the series on Proteus mirabilis [1]; 14.8 mm in the series on Bacillus subtilis [2]; 15 mm with Staphylococcus aureus [6]; 18.2 mm with Aspergillus niger [8]; 10 mm in the series with Candida albicans. In addition, the MIC in the series on Proteus mirabilis [3] is 125 µg/mL (≈ 272 µM); with Staphylococcus aureus [4], 125 µg/mL (≈ 272 µM); in the series on Bacillus subtilis [5] it was 125 µg/mL (≈ 272 µM); in the series on Aspergillus niger [7], 15.6 µg/mL and 32.5 µM; in [9] it was 1.6 µg/mL and 3.49 µM. The “inhibition zone (IZ)” value with Escherichia coli is “inactive”.

On to `OC(Cn1cncn1)(Cn1cncn1)c1ccc(F)cc1F` [FLUCONAZOLE], for which the MIC result in the series on Proteus mirabilis [3], in the series with Staphylococcus aureus [4] and in the series with Bacillus subtilis [5] was “inactive” throughout. For the same molecule, in the series with Aspergillus niger [7], the MIC is 7.82 µg/mL and 25.5 µM. The “inhibition zone (IZ)” value in the series on Candida albicans was determined as 21.6 mm.

On to `CN[C@@H]1[C@H](O[C@H]2[C@H](O[C@H]3[C@H](O)[C@@H](O)[C@H](N=C(N)N)[C@@H](O)[C@@H]3N=C(N)N)O[C@@H](C)[C@]2(O)C=O)O[C@@H](CO)[C@H](O)[C@H]1O` [STREPTOMYCIN], for which the “inhibition zone (IZ)” value turned out to be 21 mm with Proteus mirabilis [1], 18.5 mm in the series on Bacillus subtilis [2] and 21 mm in the series with Staphylococcus aureus [6]. Further, the MIC was 7.82 µg/mL and 25.5 µM with Proteus mirabilis [3]; 7.82 µg/mL and 13.4 µM with Staphylococcus aureus [4]; 7.82 µg/mL and 13.4 µM in the series with Bacillus subtilis [5]. Further, the MIC entry in the series with Aspergillus niger [7] was “inactive”.

On to `Cc1ccc(-c2nn(-c3ccccc3)cc2-c2csc(Nc3ccccc3)n2)cc1`, for which the “inhibition zone (IZ)” value in the series with Proteus mirabilis [1] was 15 mm; with Bacillus subtilis [2], 11.4 mm; with Staphylococcus aureus [6] it was 15 mm; with Escherichia coli, 13 mm; in the series with Aspergillus niger [8] it was 20 mm; with Candida albicans, 9.6 mm. The MIC was 125 µg/mL (≈ 306 µM) in the series on Proteus mirabilis [3]; 125 µg/mL (≈ 306 µM) in the series on Staphylococcus aureus [4]; 15.6 µg/mL and 38.3 µM with Aspergillus niger [7]; 12.5 µg/mL and 30.6 µM in [9]. Moreover, the viability at 24 h, 12.5 ug/ml in [10] is 64.6%. In addition, in series [11], the viability at 24 h, 25 ug/ml came to 57.3%.
